Measurements taken from patent US9226916B2, “Pyrrolidine derivatives” (HOFFMANN-LA ROCHE INC., priority 2009, dated 2016).

Assays:
[1] = target: T1, recombinant human NK3 receptor (Homo sapiens, UniProt P29371); assay: [3H]SR142801 competition binding assay
T1 construct: expressed in transfected cells; host or cells: HEK293 cells, transient expression; membranes
T1 sequence (P29371 1-465): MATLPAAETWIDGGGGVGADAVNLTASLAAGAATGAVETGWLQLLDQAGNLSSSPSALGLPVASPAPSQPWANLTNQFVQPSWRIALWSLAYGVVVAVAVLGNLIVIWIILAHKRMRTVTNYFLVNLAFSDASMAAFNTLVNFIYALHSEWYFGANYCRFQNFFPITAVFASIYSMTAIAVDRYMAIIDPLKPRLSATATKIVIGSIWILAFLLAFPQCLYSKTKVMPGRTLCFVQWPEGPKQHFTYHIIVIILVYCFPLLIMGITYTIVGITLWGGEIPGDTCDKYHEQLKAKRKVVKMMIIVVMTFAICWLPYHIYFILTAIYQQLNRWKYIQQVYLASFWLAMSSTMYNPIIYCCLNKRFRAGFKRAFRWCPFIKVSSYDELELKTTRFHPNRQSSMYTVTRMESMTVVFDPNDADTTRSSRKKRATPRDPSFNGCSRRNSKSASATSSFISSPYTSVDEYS

NK3 tachykinin receptor = target: T2, NK3 tachykinin receptor (Homo sapiens, UniProt P29371); settings: phase II trial, cited from earlier work
T2 sequence (P29371 1-465): T1 sequence (P29371 1-465)

SMILES | Ki [1] | activity in the treatment of negative symptoms of schizophrenia (NK3 tachykinin receptor; negative symptoms (depression, anhedonia, social isolation, memory and attention deficits)) | activity on positive symptoms of schizophrenia (NK3 tachykinin receptor; positive symptoms (altered behaviour, delusion, hallucinations, extreme emotions, excited motor activity, incoherent speech))
CN(C(=O)Oc1ccc(F)cc1)[C@H]1CN(C(=O)N2CCOCC2)C[C@@H]1c1ccc(Cl)c(Cl)c1 (racemic) [Example 48, rac-[(3R,4S)-4-(3,4-Dichloro-phenyl)-1-(morpholine-4-carbonyl)-pyrrolidin-3-yl]-methyl-carbamic acid 4-fluoro-phenyl ester] | 0.0294 µM |  | 
CC(=O)N(C)C1(c2ccccc2)CCN(CCC[C@]2(c3ccc(Cl)c(Cl)c3)CCCN(C(=O)c3ccccc3)C2)CC1 [SR 142,801, Osanetant] |  | inactive | active
